# Measured values reported in patent US8617871B2, “Method and culture medium for enhanced detection of Mycobacterium” (bioMerieux, Inc., priority 2009, dated 2013).
# Several values for one entry are separate records, joined by “and”; a condition that tells them apart may be missing. Equal values may be shown once. Read-outs that look alike come from different tables or passages of the source.
# How the values were obtained:
# [1] = tested on: M. intracellulare; type: cell-based, Mycobacterium intracellulare
# [2] = tested on: M. tuberculosis; experiment: Time to detection (TTD) of growth in BacT/ALERT MP culture bottles; type: cell-based, Mycobacterium tuberculosis; details: for # Positive: of # Tested
# [3] = tested on: M. kansasii; experiment: as above; type: cell-based, Mycobacterium kansasii; details: for effect on the growth (as determined by TTD of growth): Mycobacterium kansasii, compared to a culture medium that contained no antimicrobial agents; for # Positives: M. kansasii 12478, of # Tested
# Method: (§1) For the new NS, an autoclaved or new BacT/ALERT® MP bottle was used (as described hereinabove) and for conventional/old RF, conventional/old MP bottle (bioMérieux, Inc.) was used. […] The conventional MAS (using conventional/old RF) and new MAS formulas (using NS) were added to the second set of MP culture bottles. The experiment was performed with mycobacteria species at 0.5×10^3 CFU/ml and CRF cultures at 0.5×10^5 CFU/ml.
# (§2) The mycobacteria inoculum was 0.5×10^3 CFU/ml.
# [4] = tested on: M. scrofulaceum; experiment: as above; type: cell-based, Mycobacterium scrofulaceum; details: for effect on the growth (as determined by TTD of growth): Mycobacterium scrofulaceum, compared to a culture medium that contained no antimicrobial agents; for # Positives: of # Tested
# Method: as §1, §2
# [5] = tested on: M. fortuitum; experiment: as above; type: cell-based; details: M. fortuitum 6841; for # Positives: of # Tested
# [6] = tested on: contaminating respiratory flora (CRF); type: cell-based
# [7] = tested on: M. avium; type: cell-based, Mycobacterium avium
# [8] = M. tuberculosis 27294, Media + AZL 24
# [9] = M. scrofulaceum 19981, Media + VAN 3.5
smiles,measurement,setting,value
"CC1(C)S[C@@H]2[C@H](NC(=O)[C@H](NC(=O)N3CCNC3=O)c3ccccc3)C(=O)N2[C@H]1C(=O)O [AZL, azlocillin]",effect on the growth (as determined by TTD of growth),[1],negative effect
same,# Positive,"[2]; M. tuberculosis 25177, Media + AZL12",4.0
same,# Positive,"[2]; M. tuberculosis 25177, Media + AZL 24",2.0
same,# Positive,"[2]; M. tuberculosis 25177, Media + AZL 48",2.0
same,# Positive,"[2]; M. tuberculosis 27294, Media + AZL12",4.0
same,Average TTD,[2]; [8],16.0 days
same,# Positive,[2]; [8],4.0
same,# Positive,"[2]; M. tuberculosis 27294, Media + AZL 48",4.0
same,effect on the growth (as determined by TTD of growth),"[2]; Mycobacterium tuberculosis, compared to a culture medium that contained no antimicrobial agents",negative effect
same,effect on the growth (as determined by TTD of growth),[3],negative effect
same,effect on the growth (as determined by TTD of growth),[4],negative effect
"CN[C@H](CC(C)C)C(=O)N[C@H]1C(=O)N[C@@H](CC(N)=O)C(=O)N[C@H]2C(=O)N[C@H]3C(=O)N[C@H](C(=O)N[C@H](C(=O)O)c4cc(O)cc(O)c4-c4cc3ccc4O)[C@H](O)c3ccc(c(Cl)c3)Oc3cc2cc(c3O[C@@H]2O[C@H](CO)[C@@H](O)[C@H](O)[C@H]2O[C@H]2C[C@](C)(N)[C@H](O)[C@H](C)O2)Oc2ccc(cc2Cl)[C@H]1O [VAN, vancomycin]",effect on the growth (as determined by TTD of growth),[2],negative effect
same,Average TTD,[5]; Media + VAN 1.75,4.7 days
same,# Positives,[5]; Media + VAN 1.75,4.0
same,Average TTD,[5]; Media + VAN 3.5,4.1 days
same,# Positives,[5]; Media + VAN 3.5,4.0
same,Average TTD,[5]; Media + VAN 7,4.8 days
same,# Positives,[5]; Media + VAN 7,4.0
same,# Positives,[3]; Media + VAN 1.75,4.0
same,# Positives,[3]; Media + VAN 3.5,2.0
same,effect on the growth (as determined by TTD of growth),[3],negative effect
same,# Positives,"[4]; M. scrofulaceum 19981, Media + VAN 1.75",4.0
same,Average TTD,[4]; [9],14.0 days
same,# Positives,[4]; [9],4.0
same,# Positives,"[4]; M. scrofulaceum 19981, Media + VAN 7",1.0
same,effect on the growth (as determined by TTD of growth),[4],negative effect
C[C@@H]1O[C@@H]1P(=O)(O)O [fosfomycin],ability to suppress contaminating respiratory flora (CRF),[6],the best choice for suppression of CRF
"O=C(O)CCC(=O)C(=O)O [α-keto glutarate, α-ketoglutarate]",No. of positives,[7],3
same,reduction in time to detection (TTD) of growth,[7],two
same,Avg. TTD,[1],9.0 days and 8.8 days
same,No. of positives,[1],3
same,reduction in time to detection (TTD) of growth,[1],two
same,No. of positives,[2],3
same,reduction in time to detection (TTD) of growth,[2],two
